The test system of test [1] is U937 cells. The test is described as follows: Fate of receptor-bound u-PA:PAI-1 complex on U937 cells. The format is cell-based, human. To be noted: 0.5 mM chloroquine.
Experimental: Binding assay. […] The cells were then acid-treated in 50 mM glycine-HCl, 100 mM NaCl (pH 3) for 3 minutes at 4° C. and quickly neutralized with half a volume of 0.5 M Hepes, 100 mM NaCl (pH 7.4). […] Non-specific binding was determined in the presence of 100 nM unlabelled u-PA.
The basic experiment was carried out in two steps: first, labelled ligands were incubated with acid-washed cells at 4° C. for 90 minutes (step 1). […] In step 2, the cells were incubated at 37° C. for 3 hours in binding buffer containing no ligands. The amount and the state of the ligand were assayed by quantitation of the radioactivity (and the extent of TCA precipitability) at different times during step 2. To this end, both the radioactivity recovered in the cell-associated form and in the supernatant were measured.
Test [2] concerns HT-1080 cells. Description: Formation of bound plasmin on HT-1080 cells in serum culture. To be noted: for Bound plasmin activity (%): 10% serum medium, Plg alone = 100%. Type of test: cell-based, human.
Test [3] has as its system HT-1080 cells. Description: u-PA activity in medium of HT-1080 cultures (immunocapture assay). Type of test: cell-based. To be noted: Homo sapiens, control = 100%; for activity at 10 µM: TA 10 μM with Plg 40 μg/ml; for activity at 100 µM: TA 100 μM with Plg 40 μg/ml. The method, then:
S. et al., "Enzyme-linked immunosorbent assay for human urokinase-type plasminogen activators and its proenzyme using a combination of monoclonal and polyclonal antibodies", J. […] S. et al., "Monoclonal antibodies to human 54,000 molecular weight plasminogen activator inhibitor from fibrosarcoma cells--inhibitor neutralization and one-step affinity purification", Thromb. […] The coating solution contained 2.5 μg of IgG per ml of 0.1 M sodium carbonate (pH 9.8). After rinsing, the wells were treated with conditioned medium ([…]) for 2 hours at 23° C., then rinsed again. […] The other half (controls) received 50 μl of rinsing buffer (0.05% Tween 20 in PBS). […] The cultures were incubated for the times shown before assay of cell-bound plasmin.

Test [4] concerns HT-1080 cells. Description: Pro-u-PA index of cell-bound u-PA on HT-1080 cells in serum medium. The format is cell-based, human. To be noted: TA 100 μM with Plg 40 μg/ml and anti-PAI-1 antibody 10 μg/ml, 2 h at 37° C. The method, then:
Cell culture supernatants were assayed for pro-u-PA and active u-PA by the following modification of an immunocapture method (Stephens et al., 1988; Stephens et al., 1987). Microtitre wells of polystyrene immunoplates (type 269620, A/S Nunc, Roskilde, Denmark) were coated overnight at 37° C. with 50 μl of a solution of goat IgG antibodies to human u-PA (cat. # 398, American Diagnostica). The coating solution contained 2.5 μg of IgG per ml of 0.1 M sodium carbonate (pH 9.8). After rinsing, the wells were treated with conditioned medium ([…]) for 2 hours at 23° C., then rinsed again. […] This mixture was incubated for 30 minutes at 37° C., and the absorbancies of the wells were read at 405 nm. […]
Pro-u-PA and active u-PA bound to the cell layer were recovered for immunocapture assays by the same method as was used in the metabolic labelling (see above). […] For conditioned medium and cell-bound u-PA, the u-PA activity assayed after NPGB treatment was expressed as a percentage of the total activity obtained without NPGB treatment, and this percentage used as an index of pro-u-PA content (pro-u-PA index). […]

Test [5] deals with T1, plasmin (Homo sapiens, UniProt P00747). The test is described as follows: Plasmin thioesterase assay (Z-lysine thiobenzyl ester). Type of test: biochemical. The settings on record: tranexamic acid 1 mM.
T1 sequence (P00747 581-810 limits assumed): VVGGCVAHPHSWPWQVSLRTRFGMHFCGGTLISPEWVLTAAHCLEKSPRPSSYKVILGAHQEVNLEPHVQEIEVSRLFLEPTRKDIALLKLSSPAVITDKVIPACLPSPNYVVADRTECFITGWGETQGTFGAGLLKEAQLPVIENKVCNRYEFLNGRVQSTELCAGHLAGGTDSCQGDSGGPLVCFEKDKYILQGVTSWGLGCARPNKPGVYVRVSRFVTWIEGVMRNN
T1 sequence (P00747 97-580 limits assumed): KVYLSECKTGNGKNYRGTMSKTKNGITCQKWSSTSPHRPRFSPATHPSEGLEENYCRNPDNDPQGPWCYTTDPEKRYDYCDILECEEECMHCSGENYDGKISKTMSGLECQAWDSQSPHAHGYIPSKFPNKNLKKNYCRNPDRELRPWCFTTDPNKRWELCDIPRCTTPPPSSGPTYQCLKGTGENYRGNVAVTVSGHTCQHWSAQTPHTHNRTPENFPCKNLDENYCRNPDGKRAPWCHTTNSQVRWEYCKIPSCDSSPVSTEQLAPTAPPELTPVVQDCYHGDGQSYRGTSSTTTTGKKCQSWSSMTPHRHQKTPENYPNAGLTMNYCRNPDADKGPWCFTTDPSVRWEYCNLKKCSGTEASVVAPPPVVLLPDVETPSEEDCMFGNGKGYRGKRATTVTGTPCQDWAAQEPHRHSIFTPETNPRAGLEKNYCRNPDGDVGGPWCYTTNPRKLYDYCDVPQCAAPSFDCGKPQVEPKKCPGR
In test [6] the target is T1, plasmin. The test is described as follows: Plasmin-catalysed activation of pro-u-PA in solution. Type of test: biochemical. To be noted: tranexamic acid 100 μM; unpublished results.
For test [7], the system named is HT-1080 cells. The test is described as follows: Plasmin binding to and release from HT-1080 cells. The format is cell-based, human.
Experimental: Plasmin release from HT-1080 cells into serum-free and serum-containing media. Confluent layers of HT-1080 cells were first loaded with plasmin by incubation for 1 hour at 37° C. in serum-free MEM medium (0.5 ml) containing human plasmin (0-5 μg/ml). After rinsing the cell layers three times, they were incubated for 2 hours at 37° C. with either serum-free medium (.smallcircle.--.smallcircle.), medium containing 10% heat-inactivated and plasminogen-depleted fetal calf serum (.circle-solid.--.circle-solid.), or the latter with tranexamic acid (100 μM) (.box-solid.--.box-solid.). Plasmin was then assayed in the cell-bound fraction (A) and the media (B).
In the Examples concerning plasmin binding to cells from medium, human plasmin (approximately 18 CU/mg; Kabi Diagnostica, Stockholm, Sweden) was added to the cultures at final concentrations of 0-5 μg/ml. The cells were incubated for 3 hours at 37° C. before assay of cell-bound and supernatant plasmin (see below). For plasmin release experiments, cells were loaded for 1 hour at 37° C. with 0-5 μg/ml plasmin in serum-free medium, then rinsed three times with MEM.
Plasmin bound to the cell layer was recovered and assayed as follows. […] Plasmin activity was assayed in eluate samples (50 μl) as above with an incubation time of 3 hours at 37° C.

Structures are written as SMILES.

Turning to `CCN(CC)CCCC(C)Nc1ccnc2cc(Cl)ccc12` (stereo not drawn) [chloroquine], the “Ability of the u-PA:PAI-1 complex to bind to the U937 cells” value in test [1] is “does not affect”.

As for `NC[C@H]1CC[C@H](C(=O)O)CC1` [tranexamic acid], the “Bound plasmin activity (%)” value worked out at 9.7% in test [2] (TA 10 μM with Plg 40 μg/ml, 3 h); 34% in test [2] (TA 10 μM with Plg 40 μg/ml, 17 h); 2.2% in test [2] (TA 100 μM with Plg 40 μg/ml, 3 h); 13% in test [2] (TA 100 μM with Plg 40 μg/ml, 17 h). In test [2] (TA 100 μM with Plg 40 μg/ml and anti-PAI-1 antibody 10 μg/ml, 2 h at 37° C.), the “Bound plasmin activity” value turned out to be 0 ng. Further, the activity at 10 µM is 116% in test [3] (3 h) and 87% in test [3] (17 h). Moreover, the results for the activity at 100 µM in test [3] (3 h) and in test [3] (17 h) were 92% and 95%, respectively. For the same molecule, the “Pro-u-PA index (%)” value in test [4] is 88%. Also, in test [5], the “Effect on the thioesterase activity of plasmin” value is on record as “no effect”. Moreover, in test [6], the “Ability of plasmin to activate pro-u-PA in solution” value is given as “does not affect”. Moreover, the “Plasmin activity recovered from plasmin-loaded cells” value in test [7] (1 mM tranexamic acid in 10% serum medium, 2 h at 37° C.) is “no plasmin activity could be recovered”. In addition, the “Binding of plasmin to the cells” value in test [7] (tranexamic acid 100 μM) was “completely inhibits”.

These data come from patent US6248712A, “Urokinase-type plasminogen activator receptor” (Cancerforskningsfondet af 1989, priority 1995, dated 2001).
